Laboratory results taken from ChEMBL document CHEMBL2417471, “Synthesis and biological activity of (24E)- and (24Z)-26-hydroxydesmosterol” (Bioorg Med Chem, 2013).
Activity calls are given as the source filed them. No cut-off for these calls is given here.

Assays:
Assay type in all cases: cell-based
[1] = molecular target: T1, Oxysterols receptor LXR-alpha (Homo sapiens) (UniProt Q13133); experiment: Agonist activity at LXRalpha (unknown origin) transfected in mouse SN4741 cells at 10 uM after 24 hrs by luciferase reporter gene assay
T1 sequence (whole entry): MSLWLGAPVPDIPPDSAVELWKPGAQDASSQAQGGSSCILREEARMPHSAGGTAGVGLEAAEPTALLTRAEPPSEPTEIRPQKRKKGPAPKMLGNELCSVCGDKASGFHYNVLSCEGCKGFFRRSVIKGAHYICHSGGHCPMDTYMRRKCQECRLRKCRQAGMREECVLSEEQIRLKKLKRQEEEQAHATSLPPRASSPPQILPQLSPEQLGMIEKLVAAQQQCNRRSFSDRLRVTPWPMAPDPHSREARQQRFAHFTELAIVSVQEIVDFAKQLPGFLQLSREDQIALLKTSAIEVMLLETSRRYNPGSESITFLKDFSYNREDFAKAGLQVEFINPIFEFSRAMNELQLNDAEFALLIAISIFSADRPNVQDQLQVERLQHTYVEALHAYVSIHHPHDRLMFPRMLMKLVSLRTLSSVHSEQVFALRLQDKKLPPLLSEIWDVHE

[2] = molecular target: T2, Oxysterols receptor LXR-beta (Homo sapiens) (UniProt P55055); experiment: Agonist activity at LXRbeta (unknown origin) transfected in mouse SN4741 cells at 10 uM after 24 hrs by luciferase reporter gene assay
T2 sequence (whole entry): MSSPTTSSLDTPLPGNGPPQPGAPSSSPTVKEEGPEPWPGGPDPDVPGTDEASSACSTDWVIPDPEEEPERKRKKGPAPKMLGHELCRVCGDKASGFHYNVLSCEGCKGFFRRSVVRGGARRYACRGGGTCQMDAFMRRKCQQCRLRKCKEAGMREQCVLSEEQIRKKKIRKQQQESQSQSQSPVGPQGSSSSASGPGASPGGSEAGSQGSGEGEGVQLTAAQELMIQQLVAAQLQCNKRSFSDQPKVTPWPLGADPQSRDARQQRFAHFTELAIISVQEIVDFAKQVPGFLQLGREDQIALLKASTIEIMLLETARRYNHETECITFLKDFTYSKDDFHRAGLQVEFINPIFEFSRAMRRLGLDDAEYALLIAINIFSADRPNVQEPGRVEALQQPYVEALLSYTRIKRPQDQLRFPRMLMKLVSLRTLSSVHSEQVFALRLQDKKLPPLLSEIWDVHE

[3] = tested on: SN4741; experiment: Agonist activity at LXR in mouse SN4741 cells assessed as upregulation of ABCA1 protein expression at 10 uM by immunoblot analysis

| Activity [1] | Activity [2] | Structure (SMILES) | Activity [3] |
| --- | --- | --- | --- |
| Active | Active | CC(C)=CCC[C@@H](C)[C@H]1CC[C@H]2[C@@H]3CC=C4C[C@@H](O)CC[C@]4(C)[C@H]3CC[C@]12C | Active |
| inactive | inactive | C/C(=C/CC[C@@H](C)[C@H]1CC[C@H]2[C@@H]3CC=C4C[C@@H](O)CC[C@]4(C)[C@H]3CC[C@]12C)CO | inactive |
| inactive | inactive | C/C(=C\CC[C@@H](C)[C@H]1CC[C@H]2[C@@H]3CC=C4C[C@@H](O)CC[C@]4(C)[C@H]3CC[C@]12C)CO | inactive |
